Measurements: the CheMixHub viscosity set
± gives the uncertainty stated by the source.

Assay: xn = mol fraction of the nth substance listed

CCC(C)N (configuration not stated) + COCCO
308.15 K, 101 kPa
Conditions	viscosity [mPa·s]
x2 = 0.1256	0.5105 ± 0.0069
x2 = 0.2443	0.6223 ± 0.0082
x2 = 0.3566	0.7355 ± 0.0096
x2 = 0.463	0.8498 ± 0.011
x2 = 0.564	0.9507 ± 0.012
x2 = 0.6599	1.015 ± 0.013
x2 = 0.7511	1.066 ± 0.014
x2 = 0.838	1.121 ± 0.014
x2 = 0.9209	1.175 ± 0.015

CC(=O)CC(C)C + CC(C)CO
viscosity [mPa·s], 101 kPa
Conditions	298.15 K	303.15 K	308.15 K
x2 = 0.3997	–	0.703	0.656
x2 = 0.4937	0.851	0.786	0.73

CC(C)CC(=O)CC(C)C + CCCC(C)O
viscosity [mPa·s], 100 kPa
Conditions	x1 = 0.0794	x1 = 0.1627	x1 = 0.2381	x1 = 0.3487	x1 = 0.4381	x1 = 0.5619	x1 = 0.6565	x1 = 0.7364	x1 = 0.8517	x1 = 0.9341
293.15 K	3.12 ± 0.1	2.32 ± 0.07	1.78 ± 0.06	1.18 ± 0.04	0.84 ± 0.03	0.58 ± 0.02	0.51 ± 0.02	0.55 ± 0.02	0.71 ± 0.02	0.85 ± 0.03
298.15 K	2.63 ± 0.08	1.94 ± 0.06	1.43 ± 0.05	0.89 ± 0.03	0.62 ± 0.02	0.43 ± 0.02	0.4 ± 0.01	0.47 ± 0.02	0.66 ± 0.02	0.81 ± 0.03
303.15 K	2.24 ± 0.07	1.68 ± 0.05	1.21 ± 0.04	0.76 ± 0.03	0.52 ± 0.02	0.34 ± 0.01	0.32 ± 0.01	0.41 ± 0.01	0.6 ± 0.02	0.76 ± 0.02
308.15 K	1.89 ± 0.06	1.41 ± 0.05	1.05 ± 0.03	0.66 ± 0.02	0.44 ± 0.02	0.27 ± 0.01	0.24 ± 0.01	0.33 ± 0.01	0.52 ± 0.02	0.7 ± 0.02
313.15 K	1.55 ± 0.05	1.17 ± 0.04	0.87 ± 0.03	0.55 ± 0.02	0.37 ± 0.01	0.22 ± 0.01	0.19 ± 0.01	0.28 ± 0.01	0.46 ± 0.02	0.64 ± 0.02
318.15 K	1.28 ± 0.04	0.98 ± 0.03	0.75 ± 0.02	0.49 ± 0.02	0.32 ± 0.01	0.18 ± 0.01	0.16 ± 0.01	0.24 ± 0.01	0.42 ± 0.02	0.59 ± 0.02
323.15 K	1.09 ± 0.03	0.84 ± 0.03	0.65 ± 0.02	0.42 ± 0.02	0.26 ± 0.01	0.14 ± 0.01	–	0.2 ± 0.01	0.38 ± 0.01	0.53 ± 0.02

CC(C)CC(C)(C)C + CCCCCCC
101 kPa
Conditions	viscosity [mPa·s]
293.15 K, x1 = 0.6	0.454 ± 0.012
293.15 K, x1 = 0.8	0.473 ± 0.013
298.15 K, x1 = 0.1802	0.4055 ± 0.0041
298.15 K, x1 = 0.2943	0.4133 ± 0.0042
298.15 K, x1 = 0.3739	0.4193 ± 0.0042
298.15 K, x1 = 0.4883	0.4269 ± 0.0043
298.15 K, x1 = 0.5806	0.4357 ± 0.0044
298.15 K, x1 = 0.6254	0.4399 ± 0.0044
298.15 K, x1 = 0.7244	0.4491 ± 0.0045
298.15 K, x1 = 0.799	0.4562 ± 0.0046
298.15 K, x1 = 0.8649	0.461 ± 0.0046
298.15 K, x1 = 0.9217	0.4665 ± 0.0047
298.15 K, x1 = 0.9641	0.4743 ± 0.0048
313.15 K, x1 = 0.2	0.343 ± 0.009
313.15 K, x1 = 0.4	0.354 ± 0.01
313.15 K, x1 = 0.6	0.366 ± 0.01
313.15 K, x1 = 0.8	0.38 ± 0.01

CCOCC + ClCCl
298.15 K, 101 kPa
Conditions	viscosity [mPa·s]
x1 = 0.113	0.4351 ± 0.0063
x1 = 0.2227	0.4106 ± 0.006
x1 = 0.3294	0.3839 ± 0.0058
x1 = 0.4331	0.3585 ± 0.0055
x1 = 0.5341	0.3342 ± 0.0053
x1 = 0.6322	0.3106 ± 0.005
x1 = 0.7278	0.289 ± 0.0048
x1 = 0.8209	0.2687 ± 0.0046
x1 = 0.9116	0.2496 ± 0.0044

O=[PH2][O-].O=[PH2][O-].[Mn+2] + O
Conditions	viscosity [mPa·s]
298.15 K, 101.33 kPa, x1 = 0.0137	1.68 ± 0.04

CCOCC + COCCO
298.15 K, 101 kPa
Conditions	viscosity [mPa·s]
x2 = 0.0976	0.2661 ± 0.009
x2 = 0.1958	0.307 ± 0.0099
x2 = 0.2944	0.363 ± 0.011
x2 = 0.3936	0.4399 ± 0.013
x2 = 0.4933	0.5713 ± 0.016
x2 = 0.5936	0.6782 ± 0.018
x2 = 0.6944	0.8546 ± 0.022
x2 = 0.7957	1.065 ± 0.027
x2 = 0.8976	1.33 ± 0.032

CC(=O)CC(C)C + CCC(C)(C)O
viscosity [mPa·s]
Conditions	298.15 K	303.15 K	308.15 K	313.15 K
101 kPa, x1 = 0.1	2.52 ± 0.033	–	–	–
101 kPa, x1 = 0.2	1.823 ± 0.024	–	–	–
101 kPa, x1 = 0.3	1.376 ± 0.018	–	–	–
101 kPa, x1 = 0.4	1.1 ± 0.014	–	–	–
101 kPa, x1 = 0.5	0.928 ± 0.012	–	–	–
101 kPa, x1 = 0.6	0.815 ± 0.011	–	–	–
101 kPa, x1 = 0.7	0.727 ± 0.01	–	–	–
101 kPa, x1 = 0.8	0.65 ± 0.009	–	–	–
101 kPa, x1 = 0.9	0.584 ± 0.008	–	–	–
101.3 kPa, x1 = 0.1053	2.5 ± 0.069	2.11 ± 0.058	1.79 ± 0.049	1.52 ± 0.042
101.3 kPa, x1 = 0.1952	1.77 ± 0.049	1.52 ± 0.042	1.32 ± 0.036	1.15 ± 0.032
101.3 kPa, x1 = 0.305	1.37 ± 0.038	1.21 ± 0.033	1.07 ± 0.029	0.951 ± 0.026
101.3 kPa, x1 = 0.4324	1.05 ± 0.029	0.946 ± 0.026	0.856 ± 0.024	0.776 ± 0.021
101.3 kPa, x1 = 0.495	0.95 ± 0.026	0.866 ± 0.024	0.786 ± 0.022	0.721 ± 0.02
101.3 kPa, x1 = 0.6	0.813 ± 0.022	0.747 ± 0.021	0.69 ± 0.019	0.64 ± 0.018
101.3 kPa, x1 = 0.7004	0.719 ± 0.02	0.671 ± 0.019	0.627 ± 0.017	0.587 ± 0.016
101.3 kPa, x1 = 0.7937	0.641 ± 0.018	0.603 ± 0.017	0.569 ± 0.016	0.538 ± 0.015
101.3 kPa, x1 = 0.9001	0.589 ± 0.016	0.558 ± 0.015	0.529 ± 0.015	0.503 ± 0.014

CC(C)CC(C)(C)C + CCCCCCCC
viscosity [mPa·s]
Conditions	x1 = 0.2	x1 = 0.4	x1 = 0.5	x1 = 0.6	x1 = 0.8
293.15 K, 101 kPa	0.528 ± 0.014	0.519 ± 0.014	–	0.51 ± 0.014	0.503 ± 0.013
298.2 K, 100 kPa	–	–	0.4882 ± 0.02	–	–
313.15 K, 101 kPa	0.421 ± 0.011	0.415 ± 0.011	–	0.408 ± 0.011	0.403 ± 0.011

Cc1cccc[n+]1CCCO.[Cl-] + O
viscosity [mPa·s], 100 kPa
Conditions	x1 = 0.0008999	x1 = 0.001798	x1 = 0.003589	x1 = 0.005379	x1 = 0.007153	x1 = 0.00892
293.15 K	1.041 ± 0.022	1.068 ± 0.022	1.116 ± 0.023	1.161 ± 0.024	1.203 ± 0.025	1.243 ± 0.026
298.15 K	0.922 ± 0.019	0.945 ± 0.02	0.987 ± 0.021	1.026 ± 0.021	1.063 ± 0.022	1.098 ± 0.023
303.15 K	0.822 ± 0.017	0.841 ± 0.018	0.877 ± 0.018	0.911 ± 0.019	0.943 ± 0.02	0.974 ± 0.02
308.15 K	0.739 ± 0.015	0.756 ± 0.016	0.788 ± 0.016	0.818 ± 0.017	0.846 ± 0.018	0.874 ± 0.018
313.15 K	0.668 ± 0.014	0.682 ± 0.014	0.709 ± 0.015	0.736 ± 0.015	0.761 ± 0.016	0.786 ± 0.016

O=C1CCCCC1 + CCCO
303.15 K, 101 kPa
Conditions	viscosity [mPa·s]
x1 = 0.1012	1.452 ± 0.011
x1 = 0.2601	1.283 ± 0.01
x1 = 0.4199	1.243 ± 0.01
x1 = 0.5794	1.3 ± 0.011
x1 = 0.7393	1.392 ± 0.012
x1 = 0.8997	1.576 ± 0.014

O=C1CCCCC1 + CCCCCO
303.15 K, 101 kPa
Conditions	viscosity [mPa·s]
x1 = 0.1012	2.388 ± 0.022
x1 = 0.2586	1.983 ± 0.018
x1 = 0.4201	1.737 ± 0.016
x1 = 0.5809	1.622 ± 0.015
x1 = 0.7407	1.565 ± 0.014

CCOCC + Nc1ccccc1
298.15 K, 101 kPa
Conditions	viscosity [mPa·s]
x1 = 0.3027	1.359 ± 0.063
x1 = 0.5488	0.669 ± 0.067
x1 = 0.7838	0.38 ± 0.071
